Assay results as given in patent US9499550B2 (BRISTOL-MYERS SQUIBB COMPANY, priority 2012, dated 2016).

Experiments:
[1] = tested on: HCV genotype 1b (Con1) replicon in HUH-7 cells; experiment: HCV replicon luciferase reporter assay, genotype 1b; type: cell-based; settings: Hepatitis C virus, Huh-7, 72 h, HCV genotype 1b replicon luciferase assay, 3 days incubation, range class, read-out: LE_1b (EC50, range)
How it was run: (§1)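 Replicon inhibition for both genotypes was measured as Renilla luciferase signal (EnduRen, 7.5 μM final, 2 h) after 3-day, 37° C exposure of replicon-bearing HUH-7 cells in 4% FCS DMEM, 0.5% DMSO. The 1b construct carries S1179I; the 1a H77 construct carries P1496L and S2204I. Twenty-point, 3-fold dilutions were fitted four-parametrically for EC50, and CC50 was taken from multiplexed Cell Titer-Blue.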

[2] = tested on: HCV genotype 1a (H77 strain) replicon in HUH-7 cells; experiment: HCV replicon luciferase reporter assay, genotype 1a; type: cell-based; settings: Hepatitis C virus, Huh-7, 72 h, HCV genotype 1a replicon luciferase assay, 3 days incubation, range class, read-out: LE_1a (EC50, range)
How it was run: as §1

SMILES | EC50 [1] | EC50 [2]
COc1ccc2c(O[C@@H]3C[C@H]4C(=O)N[C@]5(C(=O)NS(=O)(=O)C6CC6)C[C@H]5/C=C\CC[C@H](C)C[C@@H](C)[C@H](NC(=O)O[C@H](C)C(F)(F)F)C(=O)N4C3)nc(-c3ccc(OC(C)C)c(F)c3)cc2c1 [Compound 3073, (R)-1,1,1-trifluoropropan-2-yl ((2R,6S,7R,9S,13aS,14aR,16aS,Z)-14a-((cyclopropylsulfonyl)carbamoyl)-2-((3-(3-fluoro-4-isopropoxyphenyl)-6-methoxyisoquinolin-1-yl)oxy)-7,9-dimethyl-5,16-dioxo-1,2,3,5,6,7,8,9,10,11,13a,14,14a,15,16,16a-hexadecahydrocyclopropa[e]pyrrolo[1,2-a][1,4]diazacyclopentadecin-6-yl)carbamate] | < 5.46 nM | 4.82 to 103 nM
COc1ccc2c(O[C@@H]3C[C@H]4C(=O)N[C@]5(C(=O)NS(=O)(=O)C6CC6)C[C@H]5/C=C\CC[C@@H](C)C[C@@H](C)[C@H](NC(=O)O[C@H](C)C(F)(F)F)C(=O)N4C3)nc(-c3ccc(OC(C)C)c(F)c3)cc2c1 [Compound 3074, (R)-1,1,1-trifluoropropan-2-yl ((2R,6S,7R,9R,13aS,14aR,16aS,Z)-14a-((cyclopropylsulfonyl)carbamoyl)-2-((3-(3-fluoro-4-isopropoxyphenyl)-6-methoxyisoquinolin-1-yl)oxy)-7,9-dimethyl-5,16-dioxo-1,2,3,5,6,7,8,9,10,11,13a,14,14a,15,16,16a-hexadecahydrocyclopropa[e]pyrrolo[1,2-a][1,4]diazacyclopentadecin-6-yl)carbamate] | < 5.46 nM | < 5.46 nM
COc1ccc2c(O[C@@H]3C[C@H]4C(=O)N[C@]5(C(=O)NS(=O)(=O)C6(C)CC6)C[C@H]5/C=C\CC[C@H](C)C[C@@H](C)[C@H](NC(=O)O[C@H](C)C(F)(F)F)C(=O)N4C3)nc(-c3ccc(OC(C)C)c(F)c3)cc2c1 [Compound 3075, (R)-1,1,1-trifluoropropan-2-yl ((2R,6S,7R,9S,13aS,14aR,16aS,Z)-2-((3-(3-fluoro-4-isopropoxyphenyl)-6-methoxyisoquinolin-1-yl)oxy)-7,9-dimethyl-14a-(((1-methylcyclopropyl)sulfonyl)carbamoyl)-5,16-dioxo-1,2,3,5,6,7,8,9,10,11,13a,14,14a,15,16,16a-hexadecahydrocyclopropa[e]pyrrolo[1,2-a][1,4]diazacyclopentadecin-6-yl)carbamate] | < 5.46 nM | 4.82 to 103 nM
COc1ccc2c(O[C@@H]3C[C@H]4C(=O)N[C@]5(C(=O)NS(=O)(=O)C6(C)CC6)C[C@H]5/C=C\CC[C@@H](C)C[C@@H](C)[C@H](NC(=O)O[C@H](C)C(F)(F)F)C(=O)N4C3)nc(-c3ccc(OC(C)C)c(F)c3)cc2c1 [Compound 3076, (R)-1,1,1-trifluoropropan-2-yl ((2R,6S,7R,9R,13aS,14aR,16aS,Z)-2-((3-(3-fluoro-4-isopropoxyphenyl)-6-methoxyisoquinolin-1-yl)oxy)-7,9-dimethyl-14a-(((1-methylcyclopropyl)sulfonyl)carbamoyl)-5,16-dioxo-1,2,3,5,6,7,8,9,10,11,13a,14,14a,15,16,16a-hexadecahydrocyclopropa[e]pyrrolo[1,2-a][1,4]diazacyclopentadecin-6-yl)carbamate] | < 5.46 nM | < 5.46 nM
COc1ccc2c(O[C@@H]3C[C@H]4C(=O)N[C@]5(C(=O)NS(=O)(=O)C6(C)CC6)C[C@H]5/C=C\CC[C@H](C)C[C@@H](C)[C@H](NC(=O)OC(C)(C)C(F)(F)F)C(=O)N4C3)nc(-c3ccc(OC(C)C)c(F)c3)cc2c1 [Compound 3077, 1,1,1-trifluoro-2-methylpropan-2-yl((2R,6S,7R,9S,13aS,14aR,16aS,Z)-2-((3-(3-fluoro-4-isopropoxyphenyl)-6-methoxyisoquinolin-1-yl)oxy)-7,9-dimethyl-14a-(((1-methylcyclopropyl)sulfonyl)carbamoyl)-5,16-dioxo-1,2,3,5,6,7,8,9,10,11,13a,14,14a,15,16,16a-hexadecahydrocyclopropa[e]pyrrolo[1,2-a][1,4]diazacyclopentadecin-6-yl)carbamate] | < 5.46 nM | 4.82 to 103 nM
COc1ccc2c(O[C@@H]3C[C@H]4C(=O)N[C@]5(C(=O)NS(=O)(=O)C6(C)CC6)C[C@H]5/C=C\CC[C@@H](C)C[C@@H](C)[C@H](NC(=O)OC(C)(C)C(F)(F)F)C(=O)N4C3)nc(-c3ccc(OC(C)C)c(F)c3)cc2c1 [Compound 3078, 1,1,1-trifluoro-2-methylpropan-2-yl((2R,6S,7R,9R,13aS,14aR,16aS,Z)-2-((3-(3-fluoro-4-isopropoxyphenyl)-6-methoxyisoquinolin-1-yl)oxy)-7,9-dimethyl-14a-(((1-methylcyclopropyl)sulfonyl)carbamoyl)-5,16-dioxo-1,2,3,5,6,7,8,9,10,11,13a,14,14a,15,16,16a-hexadecahydrocyclopropa[e]pyrrolo[1,2-a][1,4]diazacyclopentadecin-6-yl)carbamate] | < 5.46 nM | < 5.46 nM
COc1ccc2c(O[C@@H]3C[C@H]4C(=O)N[C@]5(C(=O)NS(=O)(=O)C6(C)CC6)C[C@H]5/C=C\CC[C@H](C)C[C@@H](C)[C@H](NC(=O)OC(C)(C)C(F)(F)F)C(=O)N4C3)nc(-c3ccc(F)cc3)cc2c1 [Compound 3079, 1,1,1-trifluoro-2-methylpropan-2-yl((2R,6S,7R,9S,13aS,14aR,16aS,Z)-2-((3-(4-fluorophenyl)-6-methoxyisoquinolin-1-yl)oxy)-7,9-dimethyl-14a-(((1-methylcyclopropyl)sulfonyl)carbamoyl)-5,16-dioxo-1,2,3,5,6,7,8,9,10,11,13a,14,14a,15,16,16a-hexadecahydrocyclopropa[e]pyrrolo[1,2-a][1,4]diazacyclopentadecin-6-yl)carbamate] | < 5.46 nM | 4.82 to 103 nM
COc1ccc2c(O[C@@H]3C[C@H]4C(=O)N[C@]5(C(=O)NS(=O)(=O)C6(C)CC6)C[C@H]5/C=C\CC[C@@H](C)C[C@@H](C)[C@H](NC(=O)OC(C)(C)C(F)(F)F)C(=O)N4C3)nc(-c3ccc(F)cc3)cc2c1 [Compound 3080, 1,1,1-trifluoro-2-methylpropan-2-yl((2R,6S,7R,9R,13aS,14aR,16aS,Z)-2-((3-(4-fluorophenyl)-6-methoxyisoquinolin-1-yl)oxy)-7,9-dimethyl-14a-(((1-methylcyclopropyl)sulfonyl)carbamoyl)-5,16-dioxo-1,2,3,5,6,7,8,9,10,11,13a,14,14a,15,16,16a-hexadecahydrocyclopropa[e]pyrrolo[1,2-a][1,4]diazacyclopentadecin-6-yl)carbamate] | < 5.46 nM | < 5.46 nM
COc1ccc2c(O[C@@H]3C[C@H]4C(=O)N[C@]5(C(=O)NS(=O)(=O)C6(C)CC6)C[C@H]5/C=C\CC[C@H](C)C[C@@H](C)[C@H](NC(=O)OC(C)(C)C)C(=O)N4C3)nc(-c3ccc(F)cc3)cc2c1 [Compound 3081, tert-butyl ((2R,6S,7R,9S,13aS,14aR,16aS,Z)-2-((3-(4-fluorophenyl)-6-methoxyisoquinolin-1-yl)oxy)-7,9-dimethyl-14a-(((1-methylcyclopropyl)sulfonyl)carbamoyl)-5,16-dioxo-1,2,3,5,6,7,8,9,10,11,13a,14,14a,15,16,16a-hexadecahydrocyclopropa[e]pyrrolo[1,2-a][1,4]diazacyclopentadecin-6-yl)carbamate] | < 5.46 nM | 4.82 to 103 nM
COc1ccc2c(O[C@@H]3C[C@H]4C(=O)N[C@]5(C(=O)NS(=O)(=O)C6(C)CC6)C[C@H]5/C=C\CC[C@@H](C)C[C@@H](C)[C@H](NC(=O)OC(C)(C)C)C(=O)N4C3)nc(-c3ccc(F)cc3)cc2c1 [Compound 3082, tert-butyl ((2R,6S,7R,9R,13aS,14aR,16aS,Z)-2-((3-(4-fluorophenyl)-6-methoxyisoquinolin-1-yl)oxy)-7,9-dimethyl-14a-(((1-methylcyclopropyl)sulfonyl)carbamoyl)-5,16-dioxo-1,2,3,5,6,7,8,9,10,11,13a,14,14a,15,16,16a-hexadecahydrocyclopropa[e]pyrrolo[1,2-a][1,4]diazacyclopentadecin-6-yl)carbamate] | < 5.46 nM | < 5.46 nM
COc1ccc2c(O[C@@H]3C[C@H]4C(=O)N[C@]5(C(=O)NS(=O)(=O)C6(C)CC6)C[C@H]5/C=C\CC[C@@H](C)C[C@@H](C)[C@H](NC(=O)O[C@H](C)C(F)(F)F)C(=O)N4C3)nc(-c3ccc(F)cc3)cc2c1 [Compound 3083, (R)-1,1,1-trifluoropropan-2-yl ((2R,6S,7R,9R,13aS,14aR,16aS,Z)-2-((3-(4-fluorophenyl)-6-methoxyisoquinolin-1-yl)oxy)-7,9-dimethyl-14a-(((1-methylcyclopropyl)sulfonyl)carbamoyl)-5,16-dioxo-1,2,3,5,6,7,8,9,10,11,13a,14,14a,15,16,16a-hexadecahydrocyclopropa[e]pyrrolo[1,2-a][1,4]diazacyclopentadecin-6-yl)carbamate] | < 5.46 nM | < 5.46 nM
COc1ccc2c(O[C@@H]3C[C@H]4C(=O)N[C@]5(C(=O)NS(=O)(=O)C6(C)CC6)C[C@H]5/C=C\CC[C@H](C)C[C@@H](C)[C@H](NC(=O)OCC5(C)CC5)C(=O)N4C3)nc(-c3ccc(F)cc3)cc2c1 [Compound 3084, (1-methylcyclopropyl)methyl ((2R,6S,7R,9S,13aS,14aR,16aS,Z)-2-((3-(4-fluorophenyl)-6-methoxyisoquinolin-1-yl)oxy)-7,9-dimethyl-14a-(((1-methylcyclopropyl)sulfonyl)carbamoyl)-5,16-dioxo-1,2,3,5,6,7,8,9,10,11,13a,14,14a,15,16,16a-hexadecahydrocyclopropa[e]pyrrolo[1,2-a][1,4]diazacyclopentadecin-6-yl)carbamate] | < 5.46 nM | 4.82 to 103 nM
